Reference: patent publication US20250152592A1, “PHARMACEUTICAL COMPOSITION COMPRISING ALLOPURINOL, FEBUXOSTAT OR PHARMACEUTICALLY ACCEPTABLE SALT THEREOF FOR PREVENTION OR TREATMENT OF CHRONIC KIDNEY DISEASE IN SUBJECT HAVING HIGH SERUM URIC ACID CONCENTRATION” (Indream Healthcare Inc., priority 2022, published 2025)

Tested on: patients with gout and a history of major cardiovascular diseases
Assay: eGFR over time by average serum uric acid concentration, analysis of clinical trial data
Assay type: in vivo, human
Settings: allopurinol group
Protocol: In order to evaluate non-inferiority of febuxostat to allopurinol related to cardiovascular risk, a clinical trial was designed and proceeded.
A multicenter, randomized, double-blind non-inferiority trial was performed. The details of the clinical trial design have been published previously. An independent data and safety monitoring committee with access to unblinded data monitored the clinical trial. The statistical analysis for the data and the safety monitoring committee was performed by an independent statistical group (WebbWrites).
The patients were regarded as having a history of major cardiovascular diseases, if they had myocardial infarction, hospitalization for unstable angina, stroke, hospitalization for transient ischemic attack, peripheral vascular disease, or diabetes mellitus symptoms. All participants provided a prior informed consent form.
The patients were randomly assigned so that they received febuxostat or allopurinol administered once a day in a double-blind manner. The randomization was stratified according to the estimated creatinine clearance at baseline (patient group having an estimated creatinine clearance ≥60 ml per minute vs patient group having an estimated creatinine clearance ≥30 and <60 ml per minute).
The dose of allopurinol was modified according to a kidney function. The patients with the estimated creatinine clearance 60 ml or more per minute i) initially received allopurinol at a dose of 300 mg once a day, and the dose was increased in 100 mg increments monthly until the patient had the serum uric acid concentration of less than 6.0 mg per deciliter or the dosage of allopurinol was 600 mg once a day. The patient having the estimated creatinine clearance of 30 ml or more and less than 60 ml per minute initially received 200 mg of allopurinol, and then the dose was increased in 100 mg increments until the patient either had the serum uric acid concentration of less than 6.0 mg per deciliter or was receiving the allopurinol dose of 400 mg once daily.
The dose of febuxostat was not modified according to the kidney function. The patients who were randomly assigned to receive febuxostat initially received 40 mg once a daily, and continued to receive the same dosage if the serum uric acid concentration was less than 6.0 mg per deciliter after 2 weeks of the treatment. If the serum uric acid concentration was higher than 6.0 mg per deciliter at 2nd week visit, the dose of febuxostat was increased to 80 mg once daily for the remainder of the trial.
During the period, the administration of a double-blind and double-dummy trial medications was guided by an interactive voice-response system which was a procedure to prevent unblinding for the patients whose dose was not adjusted. After completing dose adjustment, the urate level was concealed from the investigators, and the treatment was managed throughout the trial using the interactive voice-response system.
Outpatient visits were conducted according to the following schedule: during screening and randomization, and at 2, 4, 6, 8, 10, 12, and 24 weeks after the randomization, and every 6 months during the subsequent years of the trial. The patients with reduced kidney function or, the patients aged 65 years or older at randomization were visited at 9 and 15 months for monitoring the serum chemical profile. If the patient agreed to be monitored, but would not return for study visit, telephone contact was made, but such method was not preferred or recommended.
In order to confirm the effect of allopurinol and febuxostat on the kidney disease, the data obtained in the clinical trial described above was analyzed.

Oc1ncnc2[nH]ncc12 [allopurinol]
eGFR Mean (95% CI) (Baseline blood glucose level ≥126, Average UA <6, Baseline): 63.77 (62.08-65.46) ml/min/1.73 m^2
eGFR Mean (95% CI) (Baseline blood glucose level ≥126, Average UA <6, Month 3): 63.92 (62.16-65.69) ml/min/1.73 m^2
eGFR Mean (95% CI) (Baseline blood glucose level ≥126, Average UA <6, Month 6): 63.77 (61.98-65.56) ml/min/1.73 m^2
eGFR Mean (95% CI) (Baseline blood glucose level ≥126, Average UA <6, Month 12): 64.33 (62.51-66.15) ml/min/1.73 m^2
eGFR Mean (95% CI) (Baseline blood glucose level ≥126, Average UA <6, Month 18): 64.04 (61.97-66.10) ml/min/1.73 m^2
eGFR Mean (95% CI) (Baseline blood glucose level ≥126, Average UA <6, Month 24): 64.60 (62.41-66.78) ml/min/1.73 m^2
eGFR Mean (95% CI) (Baseline blood glucose level ≥126, Average UA <6, Month 30): 63.32 (60.93-65.71) ml/min/1.73 m^2
eGFR Mean (95% CI) (Baseline blood glucose level ≥126, Average UA <6, Month 36): 63.57 (60.97-66.18) ml/min/1.73 m^2
eGFR Mean (95% CI) (Baseline blood glucose level ≥126, Average UA <6, Month 42): 62.14 (59.40-64.89) ml/min/1.73 m^2
eGFR Mean (95% CI) (Baseline blood glucose level ≥126, Average UA <6, Month 48): 64.42 (61.23-67.61) ml/min/1.73 m^2
eGFR Mean (95% CI) (Baseline blood glucose level ≥126, Average UA <6, Month 54): 64.35 (61.09-67.61) ml/min/1.73 m^2
eGFR Mean (95% CI) (Baseline blood glucose level ≥126, Average UA <6, Month 60): 64.49 (60.29-68.70) ml/min/1.73 m^2
eGFR Mean (95% CI) (Baseline blood glucose level ≥126, Average UA <6, Week 2): 63.46 (61.70-65.22) ml/min/1.73 m^2
eGFR Mean (95% CI) (Baseline blood glucose level ≥126, Average UA ≥6, Baseline): 62.56 (60.14-64.98) ml/min/1.73 m^2
eGFR Mean (95% CI) (Baseline blood glucose level ≥126, Average UA ≥6, Month 3): 62.44 (59.88-65.00) ml/min/1.73 m^2
eGFR Mean (95% CI) (Baseline blood glucose level ≥126, Average UA ≥6, Month 6): 61.37 (58.85-63.90) ml/min/1.73 m^2
eGFR Mean (95% CI) (Baseline blood glucose level ≥126, Average UA ≥6, Month 12): 62.57 (60.02-65.12) ml/min/1.73 m^2
eGFR Mean (95% CI) (Baseline blood glucose level ≥126, Average UA ≥6, Month 18): 60.70 (57.80-63.60) ml/min/1.73 m^2
eGFR Mean (95% CI) (Baseline blood glucose level ≥126, Average UA ≥6, Month 24): 60.72 (57.46-63.99) ml/min/1.73 m^2
eGFR Mean (95% CI) (Baseline blood glucose level ≥126, Average UA ≥6, Month 30): 60.06 (56.44-63.69) ml/min/1.73 m^2
eGFR Mean (95% CI) (Baseline blood glucose level ≥126, Average UA ≥6, Month 36): 59.78 (55.61-63.95) ml/min/1.73 m^2
eGFR Mean (95% CI) (Baseline blood glucose level ≥126, Average UA ≥6, Month 42): 57.66 (52.84-62.48) ml/min/1.73 m^2
eGFR Mean (95% CI) (Baseline blood glucose level ≥126, Average UA ≥6, Month 48): 56.80 (51.66-61.93) ml/min/1.73 m^2
eGFR Mean (95% CI) (Baseline blood glucose level ≥126, Average UA ≥6, Month 54): 57.15 (51.53-62.78) ml/min/1.73 m^2
eGFR Mean (95% CI) (Baseline blood glucose level ≥126, Average UA ≥6, Month 60): 54.70 (48.12-61.28) ml/min/1.73 m^2
eGFR Mean (95% CI) (Baseline blood glucose level ≥126, Average UA ≥6, Week 2): 62.27 (59.80-64.73) ml/min/1.73 m^2
eGFR Mean (95% CI) (DBP <80, Average UA <6, Baseline): 62.91 (61.68-64.15) ml/min/1.73 m^2
eGFR Mean (95% CI) (DBP <80, Average UA <6, Month 3): 63.26 (61.95-64.58) ml/min/1.73 m^2
eGFR Mean (95% CI) (DBP <80, Average UA <6, Month 6): 63.55 (62.23-64.87) ml/min/1.73 m^2
eGFR Mean (95% CI) (DBP <80, Average UA <6, Month 12): 64.71 (63.34-66.07) ml/min/1.73 m^2
eGFR Mean (95% CI) (DBP <80, Average UA <6, Month 18): 64.41 (62.91-65.90) ml/min/1.73 m^2
eGFR Mean (95% CI) (DBP <80, Average UA <6, Month 24): 64.00 (62.43-65.57) ml/min/1.73 m^2
eGFR Mean (95% CI) (DBP <80, Average UA <6, Month 30): 64.49 (62.77-66.21) ml/min/1.73 m^2
eGFR Mean (95% CI) (DBP <80, Average UA <6, Month 36): 63.61 (61.80-65.43) ml/min/1.73 m^2
eGFR Mean (95% CI) (DBP <80, Average UA <6, Month 42): 63.91 (61.95-65.87) ml/min/1.73 m^2
eGFR Mean (95% CI) (DBP <80, Average UA <6, Month 48): 64.88 (62.69-67.07) ml/min/1.73 m^2
eGFR Mean (95% CI) (DBP <80, Average UA <6, Month 54): 64.19 (61.76-66.62) ml/min/1.73 m^2
eGFR Mean (95% CI) (DBP <80, Average UA <6, Month 60): 64.73 (61.86-67.61) ml/min/1.73 m^2
eGFR Mean (95% CI) (DBP <80, Average UA <6, Week 2): 62.85 (61.57-64.14) ml/min/1.73 m^2
eGFR Mean (95% CI) (DBP <80, Average UA ≥6, Baseline): 60.15 (58.18-62.12) ml/min/1.73 m^2
eGFR Mean (95% CI) (DBP <80, Average UA ≥6, Month 3): 61.22 (59.20-63.24) ml/min/1.73 m^2
eGFR Mean (95% CI) (DBP <80, Average UA ≥6, Month 6): 61.19 (59.14-63.24) ml/min/1.73 m^2
eGFR Mean (95% CI) (DBP <80, Average UA ≥6, Month 12): 60.39 (58.37-62.42) ml/min/1.73 m^2
eGFR Mean (95% CI) (DBP <80, Average UA ≥6, Month 18): 60.06 (57.73-62.40) ml/min/1.73 m^2
eGFR Mean (95% CI) (DBP <80, Average UA ≥6, Month 24): 59.51 (56.88-62.15) ml/min/1.73 m^2
eGFR Mean (95% CI) (DBP <80, Average UA ≥6, Month 30): 59.37 (56.35-62.39) ml/min/1.73 m^2
eGFR Mean (95% CI) (DBP <80, Average UA ≥6, Month 36): 58.89 (55.43-62.34) ml/min/1.73 m^2
eGFR Mean (95% CI) (DBP <80, Average UA ≥6, Month 42): 57.48 (53.76-61.19) ml/min/1.73 m^2
eGFR Mean (95% CI) (DBP <80, Average UA ≥6, Month 48): 59.25 (55.00-63.51) ml/min/1.73 m^2
eGFR Mean (95% CI) (DBP <80, Average UA ≥6, Month 54): 58.18 (53.60-62.76) ml/min/1.73 m^2
